Where a name gives a salt, the structure may show the parent alone. Read-outs that look alike come from different tables or passages of the source. Marks after values point to notes of the source that are not given here.
What was measured:
human 5-HT2A = human 5-HT2A (Homo sapiens (Human), UniProt P28223); experiment: cell-based; assay type: cell-based; details: for 5-HT2A Rmax ± S.E.M: % of the Rmax of 5-HT; for Selectivity EC50 5-HT2C/EC50 5-HT2A: Ca2+/Fluo-4 assay, bounds are conservative estimates; for EC50: agonist potency, n = 3-4
5-HT2C = 5-HT2C (Homo sapiens (Human), UniProt P28335); experiment: Ca2+/Fluo-4 assay, stable h5-HT2C-HEK293 cell line; assay type: cell-based; details: for 5-HT2C Rmax ± S.E.M: % of the Rmax of 5-HT; for EC50: agonist potency, n = 3-4; for 5-HT2C agonist activity (n.a./w.a.): tested up to 50 μM;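 as to all read-outs here: Agonist-induced intracellular Ca2+ rise read by Fluo-4 fluorescence in HEK293 cells stably expressing the human 5-HT2C receptor, each compound run in duplicate on three or more occasions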
Description: The functional properties of the compounds were characterised at stable HEK293 cell lines stably expressing the human 5-HT2A receptor or human 5-HT2C receptor in the Ca^2+/Fluo-4 assay essentially as previously described.^10 Briefly, the cells were split into poly-D-lysine-coated black 96-well plates with clear bottoms (6×10^4 cells/well). The following day the culture medium was aspirated and the cells were incubated in 50 μl assay buffer [Hanks Buffered Saline Solution containing 20 mM HEPES, 1 mM CaCl2, 1 mM MgCl2, 2.5 mM probenecid, pH 7.4] supplemented with 6 mM Fluo-4/AM at 37° C. for 1 hour. Next, the buffer was aspirated, the cells were washed once with 100 μl assay buffer, and then 100 μl assay buffer was added to the cells (in the antagonist experiments the compound was added at this point). […] The compounds were characterized in duplicate at least three times at each cell line.

[1] = read-out: 5-HT2A [pEC50 ± S.E.M.] (converted)
[2] = read-out: 5-HT2C [pEC50 ± S.E.M.] (converted)

Chain of 5-HT2C (P28335 whole entry, looked up): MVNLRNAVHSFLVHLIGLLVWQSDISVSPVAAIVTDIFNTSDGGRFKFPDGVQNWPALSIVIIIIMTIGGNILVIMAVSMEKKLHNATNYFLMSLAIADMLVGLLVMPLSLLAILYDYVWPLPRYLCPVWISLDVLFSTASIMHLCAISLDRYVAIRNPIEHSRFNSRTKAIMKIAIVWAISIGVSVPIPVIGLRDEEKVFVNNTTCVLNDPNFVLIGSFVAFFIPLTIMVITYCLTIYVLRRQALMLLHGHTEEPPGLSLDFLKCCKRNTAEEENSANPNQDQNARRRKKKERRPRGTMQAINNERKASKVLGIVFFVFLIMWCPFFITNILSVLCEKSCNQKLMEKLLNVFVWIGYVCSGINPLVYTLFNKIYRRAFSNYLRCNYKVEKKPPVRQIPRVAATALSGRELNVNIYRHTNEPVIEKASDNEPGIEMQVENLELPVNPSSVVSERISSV

SMILES | 5-HT2A Rmax ± S.E.M (human 5-HT2A) | Selectivity EC50 5-HT2C/EC50 5-HT2A (human 5-HT2A) | EC50 (human 5-HT2A; [1]) | 5-HT2C Rmax ± S.E.M (5-HT2C) | EC50 (5-HT2C; read-out: 5-HT2C EC50) | EC50 (human 5-HT2A; read-out: 5-HT2A EC50) | also measured
COc1cc(C2CNC2)c(OC)cc1Br.Cl [Compound 1, 3-(4-bromo-2,5-dimethoxyphenyl)azetidine hydrochloride] | 97 ± 3% | 3.6 | 0.00158 µM | 90 ± 3% | 5.8 nM |  | 
COc1cc(C(F)(F)F)c(OC)cc1C1CNC1.Cl [Compound 2, 3-(2,5-dimethoxy-4-(trifluoromethyl)phenyl)azetidine Hydrochloride] | 95 ± 2% | 5.2 | 0.001 µM | 87 ± 4% | 5.2 nM |  | 
COc1cc([C@H]2CCNC2)c(OC)cc1Br [Compound 3, (R)-3-(4-bromo-2,5-dimethoxyphenyl)pyrrolidine] | 57 ± 3% | 4.9 | 0.00776 µM | 73 ± 3% |  | 0.0053 µM | EC50 (5-HT2C; [2]): 25.7 nM
Br.COc1cc([C@@H]2CCNC2)c(OC)cc1Br [Compound 4, (S)-3-(4-bromo-2,5-dimethoxyphenyl)pyrrolidine Hydrobromide] | 39 ± 4% | 2.3 |  | 16 ± 3% |  | 0.0077 µM | EC50 (5-HT2C; [2]): 17.8 nM
COc1cc(C(F)(F)F)c(OC)cc1[C@H]1CCNC1 [Compound 5, (R)-3-(2,5-dimethoxy-4-(trifluoromethyl)phenyl)pyrrolidine] | 45 ± 1% | 3.7 | 0.0105 µM | 65 ± 4% |  | 0.011 µM | EC50 (5-HT2C; [2]): 40.7 nM
COc1cc(C(F)(F)F)c(OC)cc1[C@@H]1CCNC1 [Compound 6, (S)-3-(2,5-dimethoxy-4-(trifluoromethyl)phenyl)pyrrolidine] | 35 ± 4% | 3.5 |  | 28 ± 2% |  | 0.0054 µM | EC50 (5-HT2C; [2]): 19.1 nM
COc1cc(C(F)(F)F)c(OC)cc1[C@H]1CCCNC1 [Compound 7, (R)-3-(2,5-Dimethoxy-4-(trifluoromethyl)phenyl)piperidine hydrochloride] |  |  |  |  | 860 nM |  | 
COc1cc([C@H]2CCCNC2)c(OC)cc1Cl [Compound 9, (R)-3-(4-Chloro-2,5-dimethoxyphenyl)piperidine] |  |  |  |  | 1800 nM | 0.69 µM | EC50 (5-HT2C; [2]): 1780 nM
COc1cc([C@H]2CCCNC2)c(OC)cc1Br [Compound 11, (R)-3-(4-bromo-2,5-dimethoxyphenyl)piperidine] |  |  |  |  | 1900 nM | 0.37 µM | 
COc1cc([C@H]2CCCNC2)c(OC)cc1I [Compound 13, (R)-3-(4-Iodo-2,5-dimethoxyphenyl)piperidine] |  |  | 0.263 µM |  |  | 0.26 µM | 
COc1cc([C@H]2CCCNC2)c(OC)cc1C#N [Compound 15, (R)-2,5-dimethoxy-4-(piperidin-3-yl)benzonitrile] |  |  |  | ~13-17^c % | ~10000 nM | 2.2 µM | 
COc1cc([C@H]2CCCNC2)c(OC)cc1SC [Compound 17, (R)-3-(2,5-dimethoxy-4-(methylthio)phenyl)piperidine hydrochloride] |  |  | 0.178 µM |  | 2300 nM | 0.18 µM | EC50 (5-HT2C; [2]): 2340 nM
CCOc1cc([C@H]2CCCNC2)c(OC)cc1C(F)(F)F.Cl [Compound 19, (R)-3-(5-ethoxy-2-methoxy-4-(trifluoromethyl)phenyl)piperidine hydrochloride] | 86 ± 6% |  | 0.316 µM |  |  | 0.32 µM | 
CCOc1cc(C(F)(F)F)c(OCC)cc1[C@H]1CCCNC1.Cl [Compound 21, (R)-3-(2,5-diethoxy-4-(trifluoromethyl)phenyl)piperidine hydrochloride] | 69 ± 4% | >10^e |  |  |  | 3 µM | 
COc1cc([C@H]2CCCNC2)c(OC)cc1C [Compound 23, (R)-3-(2,5-dimethoxy-4-methylphenyl)piperidine hydrochloride] |  |  | 0.263 µM |  | 1200 nM | 0.26 µM | 
COc1cc([C@H]2CCCNC2)c(OC)cc1SC(C)C [Compound 25, (R)-3-(4-(isopropylthio)-2,5-dimethoxyphenyl)piperidine] |  |  |  |  |  | 0.29 µM | 
CCSc1cc(OC)c([C@H]2CCCNC2)cc1OC [Compound 27, (R)-3-(2,5-dimethoxy-4-(ethylthio)phenyl)piperidine hydrochloride] |  |  | 0.186 µM |  | 780 nM | 0.19 µM | 

SMILES | 5-HT2A Rmax ± S.E.M (human 5-HT2A) | Selectivity EC50 5-HT2C/EC50 5-HT2A (human 5-HT2A) | EC50 (human 5-HT2A; [1]) | 5-HT2C Rmax ± S.E.M (5-HT2C) | EC50 (5-HT2C; read-out: 5-HT2C EC50) | EC50 (human 5-HT2A; read-out: 5-HT2A EC50) | also measured
CCOc1cc(C(F)(F)F)c(OC)cc1[C@H]1CCCNC1.Cl [Compound 29, (R)-3-(2-ethoxy-5-methoxy-4-(trifluoromethyl)phenyl)piperidine hydrochloride] | 77 ± 7% |  |  |  | 2700 nM | 0.41 µM | EC50 (5-HT2C; [2]): 2750 nM
CCc1cc(OC)c([C@H]2CCCNC2)cc1OC [Compound 31, (R)-3-(4-ethyl-2,5-dimethoxyphenyl)piperidine hydrochloride] |  |  | 0.115 µM |  | 640 nM | 0.11 µM | 
CCOc1cc([C@H]2CCCNC2)c(OC)cc1CC.Cl [Compound 33, (R)-3-(5-ethoxy-4-ethyl-2-methoxyphenyl)piperidine hydrochloride] | 89 ± 4% | >10^e | 1.12 µM |  |  | 1.1 µM | 
CCOc1cc([C@H]2CCCNC2)c(OCC)cc1CC.Cl [Compound 40, (R)-3-(2,5-diethoxy-4-ethylphenyl)piperidine hydrochloride] | ~61-74^c % | >3^e |  |  |  | 7 to 10 µM | 
CCOc1cc(CC)c(OC)cc1[C@H]1CCCNC1 [Compound 42, (R)-3-(2-ethoxy-4-ethyl-5-methoxyphenyl)piperidine] | 80 ± 9% | >10^e |  |  |  | 1.5 µM | 
COc1cc(C(F)(F)F)c(SC)cc1[C@H]1CCCNC1.Cl [Compound 44, (R)-3-(2-methoxy-5-(methylthio)-4-(trifluoromethyl)phenyl)piperidine hydrochloride] | 96 ± 6% | 9.3 |  | 50 ± 2% | 660 nM | 0.071 µM | 
CCSc1cc([C@H]2CCCNC2)c(OC)cc1C(F)(F)F.Cl [Compound 46, (R)-3-(2-methoxy-5-(ethylthio)-4-(trifluoromethyl)phenyl)piperidine hydrochloride] | 97 ± 2% | 7.4 | 0.145 µM | 53 ± 5% | 1100 nM | 0.15 µM | EC50 (5-HT2C; [2]): 1070 nM
COc1cc([C@H]2CCCNC2)ccc1C(F)(F)F.Cl [Compound 48, (R)-3-(3-methoxy-4-(trifluoromethyl)phenyl)piperidine hydrochloride] | 68 ± 7% | >50^e |  |  |  | 1.8 µM | 
COc1cc([C@@H]2CCCNC2)ccc1C(F)(F)F.Cl [Compound 49, (S)-3-(3-methoxy-4-(trifluoromethyl)phenyl)piperidine Hydrochloride] | 65 ± 3% | 0.51 | 2.45 µM | 35 ± 3% | 1300 nM | 2.5 µM | EC50 (5-HT2C; [2]): 1260 nM
COc1cc(C(F)(F)F)c(F)cc1[C@H]1CCCNC1.Cl [Compound 50, (R)-3-(5-fluoro-2-methoxy-4-(trifluoromethyl)phenyl)piperidine hydrochloride] | 78 ± 6% | 2.8 |  | 40 ± 8% | 1800 nM | 0.64 µM | EC50 (5-HT2C; [2]): 1780 nM
COc1cc(C(F)(F)F)ccc1[C@H]1CCCNC1 [Compound 52, (R)-3-(2-methoxy-4-(trifluoromethyl)phenyl)piperidine hydrochloride] | 77 ± 2% |  |  |  | 1400 nM | 0.48 µM | 
COc1cc([C@H]2CCCNC2)c(OC2CC2)cc1C(F)(F)F [Compound 54, (R)-3-(2-cyclopropoxy-5-methoxy-4-(trifluoromethyl)phenyl)piperidine hydrochloride] | 76 ± 4% |  | 1.78 µM | ~46-63^c % | 3000 to 10000 nM | 1.8 µM | 
CCCCc1cc(OC)c([C@H]2CCCNC2)cc1OC [Compound 56, (R)-3-(4-butyl-2,5-dimethoxyphenyl)piperidine hydrochloride] |  |  | 0.347 µM |  | 1600 nM | 0.34 µM | 
CCN1CCC[C@H](c2cc(OC)c(C(F)(F)F)cc2OC)C1 [Compound 58, (R)-3-(2,5-dimethoxy-4-(trifluoromethyl)phenyl)-1-ethylpiperidine] |  |  |  |  |  |  | 5-HT2A agonist activity (n.a./w.a.) (human 5-HT2A; tested up to 50 μM): w.a. [@ 2-10-50; 5-HT2C agonist activity (n.a./w.a.) (5-HT2C): w.a.
CCN1CCC[C@@H](c2cc(OC)c(C(F)(F)F)cc2OC)C1 [Compound 59, (S)-3-(2,5-dimethoxy-4-(trifluoromethyl)phenyl)-1-ethylpiperidine] | 44 ± 3% | >30^e |  |  |  | 1.5 µM | loss of potency at 5-HT2A compared to compound 8 (factor) (human 5-HT2A; nitrogen substituents (tertiary amines)): ~80; 5-HT2C agonist activity (n.a./w.a.) (5-HT2C): w.a.
COc1cc(C(F)(F)F)c(OC)cc1[C@H]1CCCN(C)C1 [Compound 60, (R)3-(2,5-dimethoxy-4-(trifluoromethyl)phenyl)-1-methylpiperidine] | 53 ± 8% |  |  |  |  | 1.1 µM | 5-HT2C agonist activity (n.a./w.a.) (5-HT2C): w.a.
COc1cc(CCNCc2ccccc2O)c(OC)cc1C#N [drawing 23, reference compound] |  |  |  | 96 ± 7% |  |  | EC50 (5-HT2C; 5-HT2C EC50 (nM)): 47 nM

— patent US11642336B2, “5-HT2A agonists for use in treatment of depression” (priority 2019, dated 2023)
